Source: the NIST ThermoML archive (doi:10.1016/j.jct.2007.05.004)

What was measured:
[1] = 101 kPa, Liquid
[2] = xn = mol fraction of the nth substance listed; conditions: 101 kPa, Liquid

CCOC(C)=O [ethyl acetate]
[1]
Conditions	mass density [kg/m3]	viscosity [mPa·s]
293.15 K	900.52	0.452
298.15 K	894.43	0.426
303.15 K	888.3	0.403

COC(C)=O [methyl ethanoate]
[1]
Conditions	mass density [kg/m3]	viscosity [mPa·s]
293.15 K	933.56	0.386
298.15 K	926.98	0.367
303.15 K	920.34	0.348

CCO [ethanol]
[1]
Conditions	mass density [kg/m3]	viscosity [mPa·s]
293.15 K	789.75	1.187
298.15 K	785.46	1.082
303.15 K	781.15	0.987

CCOC(C)=O [ethyl acetate] + CCO
[2]
Conditions	mass density, 293.15 K [kg/m3]	mass density, 298.15 K [kg/m3]	mass density, 303.15 K [kg/m3]	viscosity, 293.15 K [mPa·s]	viscosity, 298.15 K [mPa·s]	viscosity, 303.15 K [mPa·s]
x2 = 0	900.52	894.43	888.3	0.452	0.426	0.403
x2 = 0.0491	896.91	890.86	884.76	0.45	0.425	0.402
x2 = 0.099	893.14	887.11	881.03	0.452	0.429	0.406
x2 = 0.1958	885.48	879.55	873.57	0.463	0.435	0.412
x2 = 0.2961	877.07	871.22	865.34	0.476	0.448	0.426
x2 = 0.3947	868.09	862.38	856.63	0.497	0.467	0.439
x2 = 0.4948	858.16	852.62	847.03	0.542	0.502	0.467
x2 = 0.5995	846.81	841.47	836.07	0.581	0.543	0.508
x2 = 0.7004	834.71	829.57	824.39	0.66	0.614	0.575
x2 = 0.8004	821.45	816.55	811.61	0.758	0.701	0.65
x2 = 0.9003	806.45	801.82	797.15	0.919	0.843	0.777
x2 = 0.9505	798.36	793.91	789.42	1.048	0.958	0.869

COC(C)=O [methyl ethanoate] + CO
[2]
Conditions	mass density, 293.15 K [kg/m3]	mass density, 298.15 K [kg/m3]	mass density, 303.15 K [kg/m3]	viscosity, 293.15 K [mPa·s]	viscosity, 298.15 K [mPa·s]	viscosity, 303.15 K [mPa·s]
x2 = 0	933.56	926.98	920.34	0.386	0.367	0.348
x2 = 0.0471	930.26	923.71	917.1	0.378	0.359	0.341
x2 = 0.0982	926.48	919.95	913.37	0.378	0.361	0.342
x2 = 0.1983	918.39	911.96	905.46	0.379	0.366	0.348
x2 = 0.2912	909.97	903.65	897.26	0.382	0.364	0.347
x2 = 0.4015	898.52	892.35	886.12	0.394	0.37	0.351
x2 = 0.5006	886.79	880.78	874.71	0.404	0.382	0.36
x2 = 0.5878	875.07	869.25	863.35	0.416	0.392	0.371
x2 = 0.7017	857.33	851.73	846.09	0.442	0.416	0.393
x2 = 0.8015	838.91	833.57	828.19	0.472	0.443	0.417
x2 = 0.9008	817.51	812.45	807.37	0.521	0.486	0.455
x2 = 0.9504	805.16	800.29	795.38	0.551	0.516	0.483

O [water] + CO
[2], x1 = 1
Conditions	viscosity [mPa·s]
293.15 K	1.003
298.15 K	0.89
303.15 K	0.797

CO [methanol]
[1]
Conditions	mass density [kg/m3]	viscosity [mPa·s]
293.15 K	791.9	0.585
298.15 K	787.2	0.545
303.15 K	782.48	0.508
